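Protocol summary: plate cells (96-well), add compound at 5 concentrations, incubate 48 h, interpolate endpoints linearly. GI50 = concentration required for 50% inhibition of growth. At the TGI there is no net growth.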 Where a SMILES comes first, the peptide text is derived from it. [ ]: non-standard residue; d: D form. The star is where a group is joined. ξ: configuration not given here. 4Abz = Nc1ccc(C(=O)O)cc1; ξL = CC(C)CC(N)C(=O)O; NHOH = ON*
Key:
Assay in all cases: DTP human tumour cell line panel, 48 h
HOP-92 NSCLC = test system: HOP-92 NSCLC
RXF 393 renal = test system: RXF 393 renal
HOP-62 NSCLC = test system: HOP-62 NSCLC
HT29 colon = test system: HT29 colon
UO-31 renal = test system: UO-31 renal
MOLT-4 leukemia = test system: MOLT-4 leukemia
SK-OV-3 ovarian = test system: SK-OV-3 ovarian
EKVX NSCLC = test system: EKVX NSCLC

Row | Compound | GI50 (HOP-92 NSCLC) [µM] | TGI (HOP-92 NSCLC) [µM] | GI50 (RXF 393 renal) [µM] | TGI (RXF 393 renal) [µM] | GI50 (HOP-62 NSCLC) [µM] | TGI (HOP-62 NSCLC) [µM] | GI50 (HT29 colon) [µM] | TGI (HT29 colon) [µM] | GI50 (UO-31 renal) [µM] | TGI (UO-31 renal) [µM] | GI50 (MOLT-4 leukemia) [µM] | TGI (MOLT-4 leukemia) [µM] | GI50 (SK-OV-3 ovarian) [µM] | TGI (SK-OV-3 ovarian) [µM] | GI50 (EKVX NSCLC) [µM] | TGI (EKVX NSCLC) [µM]
1 | CN1CCN(c2nc(NCCNc3ccnc4cc(Cl)ccc34)c3ccccc3n2)CC1 | 1.13 | 2.6 | 1.46 | 3.46 | 2.73 | 14.2 | 0.699 | 4.18 | 1.55 | 3.53 | 1.63 | 6.36 | 3.18 | 11.7 | 3.86 | 17.3
2 | COc1ccc(-c2ccc(/C=N/n3cnn(CN4CCN(C)CC4)c3=S)o2)c([N+](=O)[O-])c1 | 17.1 | 58.4 | 24.4 | > 100 | 34.1 | > 100 | 28.4 | > 100 | 83.9 | > 100 | 31.2 | > 100 | 36.4 | > 100 | 34.8 | > 100
3 | N#CC1=C(N)Oc2c(sc3c(F)cccc23)C1c1ccc(Cl)cc1 (centres undefined) | 3.71 | 19.2 | 1.92 | 6 | 2.99 | 15.7 | 3.17 | 11.5 | 2.49 | 11.5 | 2.93 | 10.5 | 5.16 | 20 | 4 | 21.7
4 | CC(=N\O)/C(C)=N/O.CC(=N\O)/C(C)=N/O.[Pd] | – | – | 3.42 | 7.42 | 5.62 | > 10 | 2.77 | 7.99 | – | – | > 10 | > 10 | 7.62 | > 10 | 6.71 | > 10
5 | CC(C)CC(NC(=O)[C@@H]1CCCN1C(=O)CNC(=O)c1ccc(N)cc1)C(=O)N[C@H](C)C(=O)NO (some centres undefined) (H-[4Abz]GP[ξL][dA]-{NHOH}) | – | – | > 100 | > 100 | > 100 | > 100 | > 100 | > 100 | > 100 | > 100 | > 100 | > 100 | > 100 | > 100 | > 100 | > 100
6 | O=C(CCCCCn1c2ccccc2c2c3c(c4c5ccccc5[nH]c4c21)C(=O)N(O)C3=O)N1CCOCC1 | – | – | 1.81 | 3.37 | 2.77 | 6.74 | 2.42 | 5.88 | 1.6 | 4.28 | 1.88 | 5.36 | 2.27 | 5.81 | 4.62 | 43.3
7 | CCCCCCCC(=O)SCC/C=C/[C@@H]1CC(=O)NCc2cccc(n2)CN(Cc2ccc(Cl)cc2)CC(=O)N[C@@H](C(C)C)C(=O)O1 | 8.76 | 41.8 | 5.9 | 44 | 5.4 | 44.4 | 4.3 | > 100 | 6.27 | 48.9 | 3.21 | > 100 | 6.41 | 42.7 | 17.8 | > 100
8 | COc1ccc(OC)c(-c2cc(-c3ccc(Cl)cc3)nn2-c2ccc(S(N)(=O)=O)cc2)c1 | 19.2 | 62.5 | – | – | – | – | – | – | 21.8 | > 100 | 3.52 | > 100 | – | – | 11.9 | 27.5
9 | NS(=O)(=O)OC[C@H]1O[C@@H](n2cnc3c(N[C@H]4CCc5ccccc54)ncnc32)[C@H](O)[C@@H]1O | 0.475 | 0.799 | 0.258 | 0.506 | 0.0569 | 0.485 | 0.327 | 5.55 | 1.41 | 2.88 | 0.22 | 1.99 | 0.234 | 0.644 | 0.349 | 9.07
10 | O=C1C=Cc2cc3ccccc3c3cccc1c23 | 1.11 | 6.29 | 2.71 | 8.62 | 2.12 | 29.5 | 7.29 | > 100 | 7.31 | > 100 | 5.03 | > 100 | 19.5 | > 100 | 2.55 | 8.92
11 | COC(=O)C(=O)C(C(=O)C(=O)Nc1ccc(Cl)cc1Cl)c1nc2ccc(Cl)cc2[nH]c1=O (centres undefined) | – | > 100 | – | – | – | > 100 | – | > 100 | – | > 100 | – | > 100 | – | > 100 | – | > 100
12 | COc1ccc2c(c1)Cc1cc(N=[N+]([O-])c3ccc4c(c3)Cc3cc(OC)ccc3-4)ccc1-2 | – | > 100 | – | > 100 | – | > 100 | – | 32.9 | – | > 100 | – | > 100 | – | > 100 | – | > 100
13 | Cc1c(Br)cccc1NC(=O)c1sc2nc3c(cc2c1N)CN(Cc1ccccc1)CC3 | 0.509 | 10.7 | 0.123 | 0.402 | 0.204 | 4.44 | 0.179 | 5.25 | 0.412 | > 50 | 0.409 | > 50 | 0.294 | 22.7 | 0.359 | > 50
14 | Cc1cc(CC(O)(C(F)(F)F)C(F)(F)F)cc(CC(O)(C(F)(F)F)C(F)(F)F)n1 | – | 5.48 | – | 14.9 | – | 8.79 | – | 7.79 | – | 4.02 | – | 13.2 | – | – | – | 10.8
15 | COC(=O)C1=C(O)C(C(=O)OC)[C@@]2(O)[C@@H](C(=O)OC)C(c3ccc(OC(=O)C(Cc4ccccc4)NC(C)=O)cc3)C[C@@H]1[C@@H]2C(=O)OC (some centres undefined) | 21.4 | 58.8 | 25.4 | 51.2 | 22.5 | 54.3 | 15.6 | 33.6 | 35.7 | > 100 | 14.8 | 46.4 | 37.5 | > 100 | 95.7 | > 100
16 | COc1cc(C2C3=C(COC3=O)N(CCO)c3cc4c(cc32)OCCO4)cc(OC)c1O (centres undefined) | > 50 | > 50 | 0.971 | > 50 | 2.72 | > 50 | 1.67 | > 18.5 | > 16.7 | > 50 | 3.68 | > 50 | 2.29 | > 50 | 3.5 | > 50

From PubChem BioAssay (NCI)
